We go through 35 molecules from US9018208B2, “Heterocycles as potassium channel modulators” (Icagen Inc., priority 2007, dated 2015).

Molecules are shown by their SMILES. pEC50: −log10 of the molar value.

The subject of this test is SH-SY5Y M-currents (KCNQ2, KCNQ3 and KCNQ5). Kind of test: SH-SY5Y native cell line FLIPR assay (voltage-sensitive dye DiBAC). The test is classed as cell-based, mouse neuroblastoma, rat glioma hybrid cell line. The settings on record: FLIPR assay, SH-SY5Y native cell line; Table 2; read-out: SH-SY5Y EC50. Summed up:
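Response is peak DiBAC fluorescence change, normalised to the maximum from a positive control agent, sampled every 30 s over 25 min. Before compound addition, SH-SY5Y cells differentiated with PGE1 plus isomethylbutylxanthine were dye-loaded for 1 h in EBSS with […] DiBAC.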
For orientation: pEC50 means −log10 of the EC50, conventionally taken in molar units. As for `O=C(Nc1nc2ccc(F)cn2c1-c1ccc(OC(F)(F)F)cc1)[C@H]1CCCO1` [Compound 243, (R)—N-(6-fluoro-3-(4-(trifluoromethoxy)phenyl)imidazo[1,2-a]pyridin-2-yl)tetrahydrofuran-2-carboxamide], the negative-log EC50 (pEC50) is 5.00 to 5.52.
Consider `O=C(Nc1nc2ccc(F)cn2c1-c1ccc(OC(F)(F)F)cc1)[C@@H]1CCCO1` [Compound 244, (S)—N-(6-fluoro-3-(4-(trifluoromethoxy)phenyl)imidazo[1,2-a]pyridin-2-yl)tetrahydrofuran-2-carboxamide], for which the pEC50 is 5.00 to 5.52.
To `COc1ccn2c(-c3ccc(C(F)(F)F)cc3)c(NC(=O)CC(C)(C)C)nc2c1` [Compound 245, N-(7-methoxy-3-(4-(trifluoromethyl)phenyl)imidazo[1,2-a]pyridin-2-yl)-3,3-dimethylbutanamide] belongs 5.52 to 6.30; to `COc1ccn2c(-c3ccc(C(F)(F)F)cc3)c(NC(=O)Cc3ccccc3)nc2c1` [Compound 246, N-(7-methoxy-3-(4-(trifluoromethyl)phenyl)imidazo[1,2-a]pyridin-2-yl)-2-phenylacetamide], 5.52 to 6.30.
The same measure for `O=C(COc1ccc(Cl)cc1Cl)Nc1nc2ccc(F)cn2c1-c1ccc(OC(F)(F)F)cc1` [Compound 247, 2-(2,4-dichlorophenoxy)-N-(6-fluoro-3-(4-(trifluoromethoxy)phenyl)imidazo[1,2-a]pyridin-2-yl)acetamide]: 5.00 to 5.52; for `O=C(Nc1nc2ccc(F)cn2c1-c1ccc(OC(F)(F)F)cc1)C1CCOC1` (centres unmarked) [Compound 248, N-(6-fluoro-3-(4-(trifluoromethoxy)phenyl)imidazo[1,2-a]pyridin-2-yl)tetrahydrofuran-3-carboxamide]: 5.00 to 5.52.
The same measure for `CC(C)C(C)C(=O)Nc1nc2ccc(F)cn2c1-c1ccc(OC(F)(F)F)cc1` (centres unmarked) [Compound 249, N-(6-fluoro-3-(4-(trifluoromethoxy)phenyl)imidazo[1,2-a]pyridin-2-yl)-2,3-dimethylbutanamide]: > 6.30; for `O=C(CCOc1ccc(F)cc1)Nc1nc2ccc(F)cn2c1-c1ccc(OC(F)(F)F)cc1` [Compound 250, N-(6-fluoro-3-(4-(trifluoromethoxy)phenyl)imidazo[1,2-a]pyridin-2-yl)-3-(4-fluorophenoxy)propanamide]: 5.52 to 6.30; for `O=C(CC1CCOCC1)Nc1nc2ccc(F)cn2c1-c1ccc(OC(F)(F)F)cc1` [Compound 251, N-(6-fluoro-3-(4-(trifluoromethoxy)phenyl)imidazo[1,2-a]pyridin-2-yl)-2-(tetrahydro-2H-pyran-4-yl)acetamide]: 5.52 to 6.30.
Consider `O=C(CC(F)(F)F)Nc1nc2ccc(F)cn2c1-c1ccc(OC(F)(F)F)cc1` [Compound 252, 3,3,3-trifluoro-N-(6-fluoro-3-(4-(trifluoromethoxy)phenyl)imidazo[1,2-a]pyridin-2-yl)propanamide], for which the pEC50 is > 6.30.
For the molecule `CO[C@@H](C(=O)Nc1nc2ccc(F)cn2c1-c1ccc(OC(F)(F)F)cc1)c1ccccc1` [Compound 253, (R)—N-(6-fluoro-3-(4-(trifluoromethoxy)phenyl)imidazo[1,2-a]pyridin-2-yl)-2-methoxy-2-phenyl acetamide], the pEC50 is 5.00 to 5.52.
To `CO[C@H](C(=O)Nc1nc2ccc(F)cn2c1-c1ccc(OC(F)(F)F)cc1)c1ccccc1` [Compound 254, (S)—N-(6-fluoro-3-(4-(trifluoromethoxy)phenyl)imidazo[1,2-a]pyridin-2-yl)-2-methoxy-2-phenyl acetamide] belongs 5.00 to 5.52; to `Cc1cc(-c2c(NC(=O)CC(C)(C)C)nc3ccc(F)cn23)ccc1F` [Compound 255, N-(6-fluoro-3-(4-fluoro-3-methylphenyl)imidazo[1,2-a]pyridin-2-yl)-3,3-dimethylbutanamide], > 6.30.
In the case of `Cc1c(F)ccc(-c2c(NC(=O)CC(C)(C)C)nc3ccc(F)cn23)c1F` [Compound 256, N-(3-(2,4-difluoro-3-methylphenyl)-6-fluoroimidazo[1,2-a]pyridin-2-yl)-3,3-dimethylbutanamide], the pEC50 was 5.52 to 6.30.
Turning to `Cc1cc(-c2c(NC(=O)CC(C)(C)C)nc3ccc(F)cn23)ccc1Cl` [Compound 257, N-(3-(4-chloro-3-methylphenyl)-6-fluoroimidazo[1,2-a]pyridin-2-yl)-3,3-dimethylbutanamide], the pEC50 was > 6.30.
Take `Cc1ccc(-c2c(NC(=O)CC(C)(C)C)nc3ccc(F)cn23)cc1Cl` [Compound 258, N-(3-(3-chloro-4-methylphenyl)-6-fluoroimidazo[1,2-a]pyridin-2-yl)-3,3-dimethylbutanamide]: the pEC50 is > 6.30.
For the molecule `CC(C)(C)CC(=O)Nc1nc2ccc(C#N)cn2c1-c1ccc(C(F)(F)F)cc1` [Compound 259, N-(6-cyano-3-(4-(trifluoromethyl)phenyl)imidazo[1,2-a]pyridin-2-yl)-3,3-dimethylbutanamide], the pEC50 is > 6.30.
The same measure for `N#Cc1ccc2nc(NC(=O)Cc3ccc(F)cc3)c(-c3ccc(C(F)(F)F)cc3)n2c1` [Compound 260, N-(6-cyano-3-(4-(trifluoromethyl)phenyl)imidazo[1,2-a]pyridin-2-yl)-2-(4-fluorophenyl)acetamide]: > 6.30; for `CC(C)(C)CC(=O)Nc1nc2c(F)cc(F)cn2c1-c1ccc(OC(F)(F)F)cc1` [Compound 262, N-(6,8-difluoro-3-(4-(trifluoromethoxy)phenyl)imidazo[1,2-a]pyridin-2-yl)-3,3-dimethylbutanamide]: > 6.30; for `O=C(CC(F)(F)F)Nc1nc2ccc(F)cn2c1-c1cccc(OC(F)(F)F)c1` [Compound 263, 3,3,3-trifluoro-N-(6-fluoro-3-(3-(trifluoromethoxy)phenyl)imidazo[1,2-a]pyridin-2-yl)propanamide]: 5.52 to 6.30.
As for `O=C(CC1CCCC1)Nc1nc2ccc(F)cn2c1-c1cccc(OC(F)(F)F)c1` [Compound 264, 2-cyclopentyl-N-(6-fluoro-3-(3-(trifluoromethoxy)phenyl)imidazo[1,2-a]pyridin-2-yl)acetamide], the pEC50 is > 6.30.
The same measure for `O=C(CC1CC1)Nc1nc2ccc(F)cn2c1-c1cccc(OC(F)(F)F)c1` [Compound 265, 2-cyclopropyl-N-(6-fluoro-3-(3-(trifluoromethoxy)phenyl)imidazo[1,2-a]pyridin-2-yl)acetamide]: 5.52 to 6.30; for `O=C(CC1CCC1)Nc1nc2ccc(F)cn2c1-c1cccc(OC(F)(F)F)c1` [Compound 266, 2-cyclobutyl-N-(6-fluoro-3-(3-(trifluoromethoxy)phenyl)imidazo[1,2-a]pyridin-2-yl)acetamide]: > 6.30.
For `O=C(CC(F)(F)F)Nc1nc2ccc(F)cn2c1-c1cccc(C(F)(F)F)c1` [Compound 267, 3,3,3-trifluoro-N-(6-fluoro-3-(3-(trifluoromethyl)phenyl)imidazo[1,2-a]pyridin-2-yl)propanamide], the negative logarithm of the EC50 (pEC50) was 5.52 to 6.30.
As to `O=C(CC1CCCC1)Nc1nc2ccc(F)cn2c1-c1cccc(C(F)(F)F)c1` [Compound 268, 2-cyclopentyl-N-(6-fluoro-3-(3-(trifluoromethyl)phenyl)imidazo[1,2-a]pyridin-2-yl)acetamide], the pEC50 was > 6.30.
Take `O=C(CC1CC1)Nc1nc2ccc(F)cn2c1-c1cccc(C(F)(F)F)c1` [Compound 269, 2-cyclopropyl-N-(6-fluoro-3-(3-(trifluoromethyl)phenyl)imidazo[1,2-a]pyridin-2-yl)acetamide]: the negative logarithm of the EC50 (pEC50) was 5.52 to 6.30.
The same measure for `O=C(CC1CCC1)Nc1nc2ccc(F)cn2c1-c1cccc(C(F)(F)F)c1` [Compound 270, 2-cyclobutyl-N-(6-fluoro-3-(3-(trifluoromethyl)phenyl)imidazo[1,2-a]pyridin-2-yl)acetamide]: > 6.30.
As to `O=C(Cc1ccc(F)cc1)Nc1nc2ccc(Cl)nn2c1-c1ccc(C(F)(F)F)cc1` [Compound 272, N-(6-chloro-3-(4-(trifluoromethyl)phenyl)imidazo[1,2-b]pyridazin-2-yl)-2-(4-fluorophenyl)acetamide], the pEC50 was 5.52 to 6.30.
To `Cc1ccc(-c2c(NC(=O)CC(C)(C)C)nc3ccc(F)cn23)cc1` [Compound 273, N-(6-fluoro-3-p-tolylimidazo[1,2-a]pyridin-2-yl)-3,3-dimethylbutanamide] belongs 5.52 to 6.30; to `O=C(CCC1CC1)Nc1nc2ccc(F)cn2c1-c1cccc(OC(F)(F)F)c1` [Compound 274, 3-cyclopropyl-N-(6-fluoro-3-(3-(trifluoromethoxy)phenyl)imidazo[1,2-a]pyridin-2-yl)propanamide], > 6.30.
For the molecule `O=C(CCC(F)(F)F)Nc1nc2ccc(F)cn2c1-c1cccc(OC(F)(F)F)c1` [Compound 275, 4,4,4-trifluoro-N-(6-fluoro-3-(3-(trifluoromethoxy)phenyl)imidazo[1,2-a]pyridin-2-yl)butanamide], the pEC50 is 5.52 to 6.30.
The same measure for `CC(CC(=O)Nc1nc2ccc(F)cn2c1-c1cccc(OC(F)(F)F)c1)C(F)(F)F` (centres unmarked) [Compound 276, 4,4,4-trifluoro-N-(6-fluoro-3-(3-(trifluoromethoxy)phenyl)imidazo[1,2-a]pyridin-2-yl)-3-methylbutanamide]: > 6.30; for `CC(C)(C)OCCC(=O)Nc1nc2ccc(F)cn2c1-c1cccc(OC(F)(F)F)c1` [Compound 277, 3-tert-butoxy-N-(6-fluoro-3-(3-(trifluoromethoxy)phenyl)imidazo[1,2-a]pyridin-2-yl)propanamide]: > 6.30.
To `CC(C)C(C)C(=O)Nc1nc2ccc(F)cn2c1-c1cccc(OC(F)(F)F)c1` (centres unmarked) [Compound 278, N-(6-fluoro-3-(3-(trifluoromethoxy)phenyl)imidazo[1,2-a]pyridin-2-yl)-2,3-dimethylbutanamide] belongs > 6.30.
To `CC(C)(C)CCC(=O)Nc1nc2ccc(F)cn2c1-c1cccc(OC(F)(F)F)c1` [Compound 279, N-(6-fluoro-3-(3-(trifluoromethoxy)phenyl)imidazo[1,2-a]pyridin-2-yl)-4,4-dimethylpentanamide] belongs > 6.30.
